In patent US12724034B2, “Tryptophan optical probe, preparation method therefor and use thereof” (priority 2020, dated 2026):

Legend:
[1] = molecular target: T1, Streptococcus pneumoniae tryptophan-binding protein 31ft (SEQ ID NO: 1) with cpYFP inserted at 263/266, optical sensor 31ft-263/266-cpYFP, SEQ ID NO: 7 (Streptococcus pneumoniae, UniProt A0A0H2UPV6, DELINS312-313[…]); settings: for response to amino acid (specific detection): specificity, FIG. 7
T1 construct: His-tag; E. coli JM109(DE3), nickel-purified
Description: (§1) 3. The centrifuged supernatant was purified by a self-packed nickel-column affinity chromatography column to obtain the protein, and the protein after nickel-column affinity chromatography was then passed through a self-packed desalting column to obtain the protein dissolved in 100 mM HEPES buffer (pH 7.4).

[2] = molecular target: T2, Streptococcus pneumoniae tryptophan-binding protein 31ft (SEQ ID NO: 1) with cpYFP inserted at 263/265, optical sensor 31ft-263/265-cpYFP, SEQ ID NO: 6 (Streptococcus pneumoniae, UniProt A0A0H2UPV6, DELINS312-312[…]); settings: for response to amino acid (specific detection): specificity, FIG. 7
T2 construct: His-tag; pCDF, E. coli JM109(DE3), nickel-column purified
Description: as §1

[3] = system: Streptococcus pneumoniae 31ft-cpYFP optical sensor mutants L84F, F202W, K214F, K214W, Y217F, Y217W, K255F, K255W, T259F, T259W, I283F and I283W; assay: Fluorescence detection of purified mutated cpYFP optical sensors; format: biochemical; settings: purified proteins; FIG. 8
Description: The plasmids pCDF-31ft-263/265-cpYFP, pCDF-31ft-263/266-cpYFP, pCDF-31ft-263/267-cpYFP were linearized by PCR with the primers containing the base sequence of the desired mutation site.
Phosphorus was added to the obtained PCR products under the action of PNK, T4 DNA ligase and PEG4000, thereby obtaining mutant plasmids of 15 sites of H13, T71, L84, D93, K105, N117, T130, V170, V192, F202, K214, Y217, K255, T259, 1283, and the sequencing was completed by Jie Li Sequencing Company. An exemplary nucleic acid sequence is set forth in SEQ ID NO:40 (263/266-T259F).

[4] = molecular target: T3, Streptococcus pneumoniae tryptophan-binding protein 31ft (SEQ ID NO: 1) with cpYFP inserted at 263/265, SEQ ID NO: 6 (Streptococcus pneumoniae, UniProt A0A0H2UPV6, DELINS312-312[…]); assay: Tryptophan response screening, disrupted supernatant, cpYFP 263/265; format: biochemical; settings: 1 mM tryptophan, disrupted supernatant of E. coli
T3 construct: His-tag; pCDF, E. coli JM109(DE3) disrupted supernatant
Description: (§2) Tryptophan response screening was performed with disrupted supernatants of E. coli expressing the 31ft-cpYFP fusion protein, and the detection signal of the fusion fluorescent protein containing 1 mM tryptophan was divided by the detection signal of the fusion fluorescent protein without tryptophan.

[5] = molecular target: T4, Streptococcus pneumoniae tryptophan-binding protein 31ft (SEQ ID NO: 1) with cpYFP inserted at 263/268, SEQ ID NO: 9 (Streptococcus pneumoniae, UniProt A0A0H2UPV6, DELINS312-315[…]); assay: Tryptophan response screening, disrupted supernatant, cpYFP 263/268; format: biochemical; settings: 1 mM tryptophan, disrupted supernatant of E. coli
T4 construct: His-tag; E. coli JM109(DE3), disrupted supernatant
Description: as §2

[6] = molecular target: T5, Streptococcus pneumoniae tryptophan-binding protein 31ft (SEQ ID NO: 1) with cpYFP inserted at 263/267, optical sensor 31ft-263/267-cpYFP, SEQ ID NO: 8 (Streptococcus pneumoniae, UniProt A0A0H2UPV6, DELINS312-314[…]); assay: Titration and specificity detection, purified sensor 31ft-263/267-cpYFP; settings: 420/485 fluorescence ratio, concentration gradient tryptophan
T5 construct: His-tag; E. coli JM109(DE3), nickel-purified
Description: as §1

[7] = molecular target: T6, Streptococcus pneumoniae tryptophan-binding protein 31ft (SEQ ID NO: 1) with cpYFP inserted at 263/268, optical sensor 31ft-263/268-cpYFP, SEQ ID NO: 9 (Streptococcus pneumoniae, UniProt A0A0H2UPV6, DELINS312-315[…]); assay: Titration and specificity detection, purified sensor 31ft-263/268-cpYFP; settings: 420/485 fluorescence ratio, concentration gradient tryptophan
T6 construct: His-tag; E. coli JM109(DE3), nickel-purified
Description: as §1

[8] = molecular target: T7, Streptococcus pneumoniae tryptophan-binding protein 31ft (SEQ ID NO: 1) with cpGFP (SEQ ID NO: 3) inserted at 263/267 (Streptococcus pneumoniae, UniProt A0A0H2UPV6, DEL312-314); assay: Tryptophan response screening, disrupted supernatant, cpGFP 263/267; format: biochemical; settings: method of Example 2 (1 mM tryptophan)
T7 construct: E. coli disrupted supernatant
Description: as §2
(§3) According to the method in Example 2, cpYFP was replaced with cpGFP to construct a tryptophan green fluorescent protein fluorescent sensor.

[9] = molecular target: T8, Streptococcus pneumoniae tryptophan-binding protein 31ft (SEQ ID NO: 1) with cpYFP inserted at 263/267, SEQ ID NO: 8 (Streptococcus pneumoniae, UniProt A0A0H2UPV6, DELINS312-314[…]); assay: Tryptophan response screening, disrupted supernatant, cpYFP 263/267; format: biochemical; settings: 1 mM tryptophan, disrupted supernatant of E. coli
T8 construct: His-tag; E. coli JM109(DE3), disrupted supernatant
Description: as §2

[10] = molecular target: T9, Streptococcus pneumoniae tryptophan-binding protein 31ft with cpYFP inserted at 263/266, mutant T259F, optical sensor 31ft-263/266-cpYFP-T259F, SEQ ID NO: 31 (Streptococcus pneumoniae, UniProt A0A0H2UPV6, DELINS312-313[…]/T307F); assay: Fluorescence spectra and tryptophan response of purified 31ft-263/266-cpYFP-T259F; format: biochemical
T9 construct: His-tag; E. coli, purified
Description: 6. […] The determination of the absorption spectrum and fluorescence spectrum of the sample is completed by a spectrophotometer and a fluorescence spectrophotometer.
Detection of fluorescence spectra was performed using a fluorescence spectrophotometer after subjecting purified tryptophan optical sensor 31ft-263/266-cpYFP-T259F to 0 mM and 1 mM tryptophan treatments for 10 min, respectively.
Determination of emission spectra: excitation spectra were recorded with an fixed excitation wavelength of 420 nm and 485 nm and an emission range of 470-600 nm and 490-600 nm, read every 5 nm.

[11] = molecular target: tryptophan optical sensor (Streptococcus pneumoniae tryptophan-binding protein 31ft fusion) (Streptococcus pneumoniae, UniProt A0A0H2UPV6); assay: Highest response of the tryptophan optical sensor provided in this application; format: biochemical
[12] = molecular target: T10, Streptococcus pneumoniae tryptophan-binding protein 31ft (SEQ ID NO: 1) with cpYFP inserted at 263/266, SEQ ID NO: 7 (Streptococcus pneumoniae, UniProt A0A0H2UPV6, DELINS312-313[…]); assay: Tryptophan response screening, disrupted supernatant, cpYFP 263/266; format: biochemical; settings: 1 mM tryptophan, disrupted supernatant of E. coli
T10 construct: His-tag; E. coli JM109(DE3), disrupted supernatant
Description: as §2

[13] = molecular target: T11, Streptococcus pneumoniae tryptophan-binding protein 31ft (SEQ ID NO: 1) with cpGFP (SEQ ID NO: 3) inserted at 263/266 (Streptococcus pneumoniae, UniProt A0A0H2UPV6, DEL312-313); assay: Tryptophan response screening, disrupted supernatant, cpGFP 263/266; format: biochemical; settings: method of Example 2 (1 mM tryptophan)
T11 construct: E. coli disrupted supernatant
Description: as §2, §3

[14] = molecular target: T12, Streptococcus pneumoniae tryptophan-binding protein 31ft (SEQ ID NO: 1) with cpGFP (SEQ ID NO: 3) inserted at 263/265 (Streptococcus pneumoniae, UniProt A0A0H2UPV6, DEL312-312); assay: Tryptophan response screening, disrupted supernatant, cpGFP 263/265; format: biochemical; settings: method of Example 2 (1 mM tryptophan)
T12 construct: E. coli disrupted supernatant
Description: as §2, §3

HeLa cells = assay: Dynamic monitoring of tryptophan transmembrane transport in HeLa cells expressing the optical sensor in the cytosol; format: cell-based; settings: 1 mM tryptophan, 30 min, HBSS
Description: 1. The pCDNA3.1+-based tryptophan optical sensor plasmid was transfected into HeLa by the transfection reagent Lipofectamine2000 (Invitrogen), and cultured in a cell incubator at 37° C., 5% CO2. Fluorescence detection was performed 24-36 h after the exogenous gene was fully expressed.
2. After induction of expression, adherent HeLa cells were washed three times with PBS and placed in HMS solution for fluorescence microscopy and microplate reader assays, respectively.
Add 1 mM tryptophan and continue the assay for 30 minutes.

[15] = molecular target: T13, Streptococcus pneumoniae tryptophan-binding protein 31ft (SEQ ID NO: 1) with cpGFP (SEQ ID NO: 3) inserted at 263/268 (Streptococcus pneumoniae, UniProt A0A0H2UPV6, DEL312-315); assay: Tryptophan response screening, disrupted supernatant, cpGFP 263/268; format: biochemical; settings: method of Example 2 (1 mM tryptophan)
T13 construct: E. coli disrupted supernatant
Description: as §2, §3

[16] = 420/485 fluorescence ratio, concentration gradient tryptophan

Compound | response to amino acid (specific detection) [1] [times] | response to amino acid (specific detection) [2] [times] | response to tryptophan [3] | response to tryptophan (signal with / without tryptophan) [4] | response to tryptophan (signal with / without tryptophan) [5] | change amplitude [6] [times] | change amplitude [7] [times] | response to tryptophan [8] | response to tryptophan (signal with / without tryptophan) [9] | decrease in fluorescence intensity under excitation at 460 nm, compared to 0 mM tryptophan ([10]; 1 mM tryptophan, 10 min) [fold] | fluorescence intensity excited at 420 nm, relative to 0 mM tryptophan ([10]; 1 mM tryptophan, 10 min) [times] | response to tryptophan ([10]; purified protein) | highest response to tryptophan, increase of the control [11] | response to tryptophan (signal with / without tryptophan) [12] | response to tryptophan [13] | response to tryptophan [14] | highest 485/420 ratio relative to the initial value (HeLa cells) [times] | response to tryptophan [15] | change amplitude [1, 16] [times] | change amplitude [2, 16] [times]
N[C@@H](Cc1ccccc1)C(=O)O [phenylalanine] | 1.34 | 1.37 |  |  |  |  |  |  |  |  |  |  |  |  |  |  |  |  |  | 
N[C@@H](Cc1c[nH]c2ccccc12)C(=O)O [tryptophan, L-tryptophan] |  |  | more than 2.5 times | more than 1.5 times | more than 1.5 times | 3.3 | 3.0 | more than 1.5 times | more than 1.5 times | 0.26 | 1.1 | more than 2.5 fold | more than 9 fold | more than 1.5 times | more than 1.5 times | more than 1.5 times | 1.3 | more than 1.5 times | 5.3 | 4.2
N[C@@H](Cc1ccc(O)cc1)C(=O)O [tyrosine] | 1.26 | 1.25 |  |  |  |  |  |  |  |  |  |  |  |  |  |  |  |  |  | 
